Source: PubChem BioAssay (NCI)
Several values for one entry are separate records, joined by “and”; a condition that tells them apart may be missing. Equal values may be shown once.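 Assay format: 96-well plates, 48-hour exposure. GI50: concentration for 50% inhibition of growth. At the TGI there is no net growth.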 Where a SMILES comes first, the peptide text is derived from it. [ ]: non-standard residue; d: D form. The star is where a group is joined. Dolaproine = CO[C@@H]([C@@H]1CCCN1)[C@@H](C)C(=O)O; Dil = CC[C@H](C)[C@H](NC)[C@@H](CC(=O)O)OC; X2 = C[C@@H](N*)[C@@H](O)c1ccccc1; NMeV = CN[C@H](C(=O)O)C(C)C

What was measured:
Experiment in all cases: inhibition of tumour cell growth, NCI panel, 48 h
MDA-MB-468 breast = test system: MDA-MB-468 breast
UO-31 renal = test system: UO-31 renal
HL-60(TB) leukemia = test system: HL-60(TB) leukemia
SK-MEL-2 melanoma = test system: SK-MEL-2 melanoma
SNB-19 CNS = test system: SNB-19 CNS
TK-10 renal = test system: TK-10 renal
MOLT-4 leukemia = test system: MOLT-4 leukemia
UACC-62 melanoma = test system: UACC-62 melanoma
OVCAR-4 ovarian = test system: OVCAR-4 ovarian
T-47D breast = test system: T-47D breast
K-562 leukemia = test system: K-562 leukemia
HCT-116 colon = test system: HCT-116 colon
IGROV1 ovarian = test system: IGROV1 ovarian
MDA-MB-435 = test system: MDA-MB-435
M14 melanoma = test system: M14 melanoma
COLO 205 colon = test system: COLO 205 colon
SK-MEL-5 melanoma = test system: SK-MEL-5 melanoma
SR leukemia = test system: SR leukemia
KM12 colon = test system: KM12 colon
ACHN renal = test system: ACHN renal
SF-539 CNS = test system: SF-539 CNS
BT-549 breast = test system: BT-549 breast
DU-145 prostate = test system: DU-145 prostate
UACC-257 melanoma = test system: UACC-257 melanoma
MDA-MB-231 breast = test system: MDA-MB-231 breast
HT29 colon = test system: HT29 colon
HCC-2998 colon = test system: HCC-2998 colon
MALME-3M melanoma = test system: MALME-3M melanoma
SN12C renal = test system: SN12C renal
CCRF-CEM leukemia = test system: CCRF-CEM leukemia
SK-MEL-28 melanoma = test system: SK-MEL-28 melanoma
OVCAR-8 ovarian = test system: OVCAR-8 ovarian
HCT-15 colon = test system: HCT-15 colon
OVCAR-5 ovarian = test system: OVCAR-5 ovarian
MCF7 breast = test system: MCF7 breast

What does the source list for `CCCCC(CCCCCC(CCCC)C1NC(C)Cc2cc(OC)c(OC)cc21)C1NC(C)Cc2cc(OC)c(OC)cc21` (stereo not given)?
GI50 (MDA-MB-468 breast): 436 nM; TGI (MDA-MB-468 breast): 1880 nM

How did the GI50 (MDA-MB-468 breast) turn out when `COc1cc(C2C3=C(COC3=O)N(CCO)c3cc4c(cc32)OCO4)cc(OC)c1OC` (stereo not given) was run?
The GI50 was 242 nM and 344 nM.

What about the TGI (MDA-MB-468 breast) of the same compound?
The TGI was 626 nM and 979 nM.

`Nc1ccc(S(=O)(=O)c2ccc(N)cc2)cc1` was tested. Which GI50 (MDA-MB-468 breast) did it give?
Its GI50 is over 100000 nM.

What about the TGI (MDA-MB-468 breast) of the same compound?
Its TGI is over 100000 nM.

Which GI50 (MDA-MB-468 breast) does the source give for `CSc1nc(-c2cc3ccccc3o2)cc(-c2ccc(Cl)cc2)c1C#N` here?
The GI50 was 21800 nM.

And the TGI (MDA-MB-468 breast)?
Its TGI is over 100000 nM.

Which GI50 (MDA-MB-468 breast) does the source give for `N#CC1(Nc2ccc(Br)cc2)CCCC1` here?
Its GI50 is over 100000 nM.

And the TGI (MDA-MB-468 breast)?
The TGI was over 100000 nM.

What does the source list for `Cc1nc2ccccc2nc1NNc1ccccc1`?
GI50 (MDA-MB-468 breast): 10300 nM; TGI (MDA-MB-468 breast): 58000 nM

What does the source list for `COc1cccc(C2=C(c3cn(C)c4ccc(Cl)cc34)C(=O)NC2=O)c1`?
GI50 (MDA-MB-468 breast): 4170 nM; TGI (MDA-MB-468 breast): 17100 nM

`c1cc[n+](C2c3ccccc3C([n+]3ccccc3)c3ccccc32)cc1` (stereo not given) was tested. Which GI50 (MDA-MB-468 breast) did it give?
Its GI50 is 1110 nM.

What about the TGI (MDA-MB-468 breast) of the same compound?
Its TGI is 4400 nM.

With `CC[C@H](C)[C@@H]([C@@H](CC(=O)N1CCC[C@H]1[C@H](OC)[C@@H](C)C(=O)N[C@H](C)[C@@H](O)c1ccccc1)OC)N(C)C(=O)[C@@H](NC(=O)[C@@H](NC)C(C)C)C(C)C` (H-[NMeV]V[Dil][Dolaproine]-X2) as the compound, how does the GI50 (MDA-MB-468 breast) read?
The GI50 was under 5 nM.

What about the TGI (MDA-MB-468 breast) of the same compound?
The TGI was over 57100 nM.

`Cc1ccc(S(=O)(=O)c2ccccc2)cc1` was tested. Which GI50 (MDA-MB-468 breast) did it give?
Its GI50 is 1590 nM.

What about the TGI (MDA-MB-468 breast) of the same compound?
Its TGI is 5780 nM.

Which results are given for `COc1ccc(-c2cn[nH]c2-c2cc(OC)c(OC)c(OC)c2)cc1OCc1ccccc1`?
GI50 (MDA-MB-468 breast): 2180 nM; TGI (MDA-MB-468 breast): 7940 nM

With `O=C1Nc2ccccc2/C1=C\c1c(-c2ccccc2)nc2ccccn12` as the compound, how does the GI50 (MDA-MB-468 breast) read?
Its GI50 is 2100 nM.

And the TGI (MDA-MB-468 breast)?
Its TGI is 6670 nM.

What does the source list for `COc1cccc2[nH]c3c4c(c5c(c3c12)C(=O)N(CN1CCN(C)CC1)C5=O)CCC4`?
GI50 (MDA-MB-468 breast): 5150 nM; TGI (MDA-MB-468 breast): 26600 nM

Which results are given for `O=C1/C(=C/c2ccccc2)CN(C(=O)CCN2CCC(=NO)CC2)C/C1=C\c1ccccc1`?
GI50 (MDA-MB-468 breast): 1740 nM; TGI (MDA-MB-468 breast): 4250 nM

With `CC[C@H](C)[C@H](NC(=O)c1ccccn1)C(=O)N(C)[C@H](C[C@@H](OC(C)=O)c1nc(C(=O)N[C@@H](Cc2ccccc2)C[C@H](C)C(=O)OC)cs1)C(C)C` as the compound, how does the GI50 (MDA-MB-468 breast) read?
The GI50 was 3380 nM.

What about the TGI (MDA-MB-468 breast) of the same compound?
Its TGI is 15400 nM.

How did the GI50 (UO-31 renal) turn out when `O=C(NCCCCCCCCCC[P+](c1ccccc1)(c1ccccc1)c1ccccc1)c1ccc(-n2nc(-c3ccccc3O)nc2-c2ccccc2O)cc1` was run?
Its GI50 is 428 nM.

What about the TGI (UO-31 renal) of the same compound?
Its TGI is 1930 nM.

And the GI50 (HL-60(TB) leukemia)?
The GI50 was 56.5 nM.

And the TGI (HL-60(TB) leukemia)?
Its TGI is 461 nM.

And the GI50 (SK-MEL-2 melanoma)?
Its GI50 is 133 nM.

And the TGI (SK-MEL-2 melanoma)?
The TGI was 530 nM.

What about the GI50 (SNB-19 CNS) of the same compound?
The GI50 was 50.5 nM.

What about the TGI (SNB-19 CNS) of the same compound?
The TGI was 1170 nM.

What about the GI50 (TK-10 renal) of the same compound?
The GI50 was 330 nM.

And the TGI (TK-10 renal)?
The TGI was 1500 nM.

And the GI50 (MOLT-4 leukemia)?
The GI50 was 58.5 nM.

What about the TGI (MOLT-4 leukemia) of the same compound?
The TGI was 1430 nM.

What about the GI50 (UACC-62 melanoma) of the same compound?
Its GI50 is 84 nM.

What about the TGI (UACC-62 melanoma) of the same compound?
Its TGI is 568 nM.

What about the GI50 (OVCAR-4 ovarian) of the same compound?
Its GI50 is 180 nM.

And the TGI (OVCAR-4 ovarian)?
Its TGI is 2210 nM.

What about the GI50 (T-47D breast) of the same compound?
The GI50 was 35.2 nM.

What about the TGI (T-47D breast) of the same compound?
Its TGI is 522 nM.

And the GI50 (K-562 leukemia)?
Its GI50 is 44.9 nM.

What about the TGI (K-562 leukemia) of the same compound?
Its TGI is 3210 nM.

And the GI50 (HCT-116 colon)?
Its GI50 is 37.7 nM.

What about the TGI (HCT-116 colon) of the same compound?
Its TGI is 1080 nM.

And the GI50 (IGROV1 ovarian)?
Its GI50 is 48.3 nM.

What about the TGI (IGROV1 ovarian) of the same compound?
The TGI was 1180 nM.

What about the GI50 (MDA-MB-435) of the same compound?
Its GI50 is 40.9 nM.

What about the TGI (MDA-MB-435) of the same compound?
The TGI was 1110 nM.

What about the GI50 (M14 melanoma) of the same compound?
Its GI50 is 82.5 nM.

What about the TGI (M14 melanoma) of the same compound?
The TGI was 1320 nM.

And the GI50 (COLO 205 colon)?
The GI50 was 50.8 nM.

What about the TGI (COLO 205 colon) of the same compound?
The TGI was 268 nM.

And the GI50 (SK-MEL-5 melanoma)?
Its GI50 is 165 nM.

And the TGI (SK-MEL-5 melanoma)?
The TGI was 447 nM.

And the GI50 (SR leukemia)?
The GI50 was under 19.1 nM.

What about the TGI (SR leukemia) of the same compound?
Its TGI is over 40500 nM.

And the GI50 (KM12 colon)?
Its GI50 is 203 nM.

What about the TGI (KM12 colon) of the same compound?
Its TGI is 1340 nM.

And the GI50 (ACHN renal)?
The GI50 was 379 nM.

What about the TGI (ACHN renal) of the same compound?
Its TGI is 1360 nM.

And the GI50 (SF-539 CNS)?
Its GI50 is 172 nM.

What about the TGI (SF-539 CNS) of the same compound?
The TGI was 716 nM.

What about the GI50 (BT-549 breast) of the same compound?
Its GI50 is 104 nM.

What about the TGI (BT-549 breast) of the same compound?
The TGI was 673 nM.

What about the GI50 (DU-145 prostate) of the same compound?
The GI50 was 46.4 nM.

And the TGI (DU-145 prostate)?
Its TGI is 1630 nM.

What about the GI50 (UACC-257 melanoma) of the same compound?
Its GI50 is 90.4 nM.

What about the TGI (UACC-257 melanoma) of the same compound?
The TGI was 792 nM.

And the GI50 (MDA-MB-468 breast)?
The GI50 was 25.5 nM.

And the TGI (MDA-MB-468 breast)?
Its TGI is 121 nM.

What about the GI50 (MDA-MB-231 breast) of the same compound?
The GI50 was 99.3 nM.

And the TGI (MDA-MB-231 breast)?
The TGI was 728 nM.

And the GI50 (HT29 colon)?
Its GI50 is 40.1 nM.

What about the TGI (HT29 colon) of the same compound?
The TGI was 789 nM.

And the GI50 (HCC-2998 colon)?
Its GI50 is 57.4 nM.

And the TGI (HCC-2998 colon)?
Its TGI is 1430 nM.

What about the GI50 (MALME-3M melanoma) of the same compound?
Its GI50 is 30.7 nM.

What about the TGI (MALME-3M melanoma) of the same compound?
Its TGI is 190 nM.

What about the GI50 (SN12C renal) of the same compound?
Its GI50 is 40.7 nM.

And the TGI (SN12C renal)?
The TGI was 721 nM.

What about the GI50 (CCRF-CEM leukemia) of the same compound?
Its GI50 is 39.6 nM.

And the TGI (CCRF-CEM leukemia)?
Its TGI is over 100000 nM.

What about the GI50 (SK-MEL-28 melanoma) of the same compound?
Its GI50 is 115 nM.

And the TGI (SK-MEL-28 melanoma)?
Its TGI is 1590 nM.

And the GI50 (OVCAR-8 ovarian)?
The GI50 was 74 nM.

What about the TGI (OVCAR-8 ovarian) of the same compound?
The TGI was 1220 nM.

What about the GI50 (HCT-15 colon) of the same compound?
The GI50 was 566 nM.

What about the TGI (HCT-15 colon) of the same compound?
Its TGI is 2480 nM.

And the GI50 (OVCAR-5 ovarian)?
The GI50 was 192 nM.

And the TGI (OVCAR-5 ovarian)?
The TGI was 926 nM.

What about the GI50 (MCF7 breast) of the same compound?
The GI50 was 41.7 nM.

And the TGI (MCF7 breast)?
The TGI was 953 nM.
